Test results taken from US8703961B2, “Thiazole derivatives for the treatment of diseases such as cancer” (Merck Patent GmbH, priority 2009, dated 2014).

What was measured:
[1] = target: T1, CSK (Homo sapiens, UniProt P41240); assay: filter binding kinase assay; type: biochemical; conditions: derived from % inhibition at 1 μM
T1 construct: purchased
In short: (§1)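 Compound was pre-incubated with enzyme and substrate for 5 minutes at room temperature, then the reaction was started with ATP (added solution at 5, 20 or 50 […] depending on kinase). Orthophosphoric acid stopped it, and phosphorylated substrate captured on P81 filters was quantified by scintillation counting.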

[2] = target: T2, FGFR1 (Homo sapiens, UniProt P11362); assay: filter binding kinase assay; type: biochemical; conditions: derived from % inhibition at 1 μM
T2 construct: purchased
T2 sequence (P11362 22-822, species assumed): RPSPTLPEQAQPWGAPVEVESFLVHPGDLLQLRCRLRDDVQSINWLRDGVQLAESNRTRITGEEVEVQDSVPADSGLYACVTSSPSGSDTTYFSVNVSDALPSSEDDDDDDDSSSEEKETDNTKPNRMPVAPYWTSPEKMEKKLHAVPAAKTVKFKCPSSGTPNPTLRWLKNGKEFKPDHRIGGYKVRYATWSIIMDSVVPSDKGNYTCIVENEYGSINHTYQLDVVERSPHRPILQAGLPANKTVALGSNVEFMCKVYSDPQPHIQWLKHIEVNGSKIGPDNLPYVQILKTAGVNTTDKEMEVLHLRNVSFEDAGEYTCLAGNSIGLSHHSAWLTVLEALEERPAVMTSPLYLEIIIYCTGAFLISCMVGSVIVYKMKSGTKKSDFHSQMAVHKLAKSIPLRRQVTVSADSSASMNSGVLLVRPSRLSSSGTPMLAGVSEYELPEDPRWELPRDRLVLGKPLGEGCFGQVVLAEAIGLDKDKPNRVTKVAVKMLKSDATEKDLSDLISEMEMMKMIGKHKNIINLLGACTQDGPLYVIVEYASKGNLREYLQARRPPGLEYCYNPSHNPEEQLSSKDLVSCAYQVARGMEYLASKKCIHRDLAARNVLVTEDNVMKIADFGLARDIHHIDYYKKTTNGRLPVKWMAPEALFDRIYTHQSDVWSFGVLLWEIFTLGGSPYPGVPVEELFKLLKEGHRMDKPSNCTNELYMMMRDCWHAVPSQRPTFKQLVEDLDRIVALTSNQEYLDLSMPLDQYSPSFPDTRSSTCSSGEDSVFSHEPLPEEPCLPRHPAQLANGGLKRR
In short: as §1

[3] = target: T3, MYLK (Homo sapiens, UniProt Q15746); assay: filter binding kinase assay; type: biochemical; conditions: derived from % inhibition at 1 μM
T3 construct: purchased
In short: as §1

[4] = target: T4, NEK2 (Nek2A) (Homo sapiens, UniProt P51955); assay: filter binding kinase assay; type: biochemical; conditions: for IC50: derived from % inhibition at 1 μM
T4 construct: purchased
T4 sequence (P51955 1-445): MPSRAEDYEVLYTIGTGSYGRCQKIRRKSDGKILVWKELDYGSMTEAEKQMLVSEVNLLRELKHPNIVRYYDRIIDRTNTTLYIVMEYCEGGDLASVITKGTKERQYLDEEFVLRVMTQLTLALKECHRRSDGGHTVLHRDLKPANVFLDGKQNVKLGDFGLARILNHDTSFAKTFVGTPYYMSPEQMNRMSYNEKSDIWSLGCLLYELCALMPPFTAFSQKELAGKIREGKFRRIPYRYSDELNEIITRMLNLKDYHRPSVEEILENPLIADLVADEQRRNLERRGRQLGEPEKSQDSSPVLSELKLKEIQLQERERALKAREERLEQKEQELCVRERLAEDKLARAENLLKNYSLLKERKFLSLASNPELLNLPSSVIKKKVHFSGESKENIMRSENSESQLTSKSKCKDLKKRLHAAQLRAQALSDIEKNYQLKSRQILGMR
In short: as §1

[5] = target: T5, NEK6 (Homo sapiens, UniProt Q9HC98); assay: filter binding kinase assay; type: biochemical; conditions: derived from % inhibition at 1 μM
T5 construct: purchased
T5 sequence (Q9HC98 whole entry, species assumed): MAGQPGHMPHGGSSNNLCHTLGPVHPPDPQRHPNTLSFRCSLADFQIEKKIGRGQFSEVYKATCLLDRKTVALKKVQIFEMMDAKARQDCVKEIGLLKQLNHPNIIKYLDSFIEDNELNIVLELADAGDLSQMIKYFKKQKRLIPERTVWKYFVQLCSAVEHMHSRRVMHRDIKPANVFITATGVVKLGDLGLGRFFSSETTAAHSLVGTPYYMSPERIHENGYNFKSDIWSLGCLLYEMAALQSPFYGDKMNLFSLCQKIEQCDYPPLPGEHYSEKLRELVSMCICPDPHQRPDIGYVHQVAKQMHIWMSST
In short: as §1

[6] = target: T6, PKN2 (PRK2) (Homo sapiens, UniProt Q16513); assay: filter binding kinase assay; type: biochemical; conditions: for IC50: derived from % inhibition at 1 μM
T6 construct: purchased
T6 sequence (Q16513 whole entry, species assumed): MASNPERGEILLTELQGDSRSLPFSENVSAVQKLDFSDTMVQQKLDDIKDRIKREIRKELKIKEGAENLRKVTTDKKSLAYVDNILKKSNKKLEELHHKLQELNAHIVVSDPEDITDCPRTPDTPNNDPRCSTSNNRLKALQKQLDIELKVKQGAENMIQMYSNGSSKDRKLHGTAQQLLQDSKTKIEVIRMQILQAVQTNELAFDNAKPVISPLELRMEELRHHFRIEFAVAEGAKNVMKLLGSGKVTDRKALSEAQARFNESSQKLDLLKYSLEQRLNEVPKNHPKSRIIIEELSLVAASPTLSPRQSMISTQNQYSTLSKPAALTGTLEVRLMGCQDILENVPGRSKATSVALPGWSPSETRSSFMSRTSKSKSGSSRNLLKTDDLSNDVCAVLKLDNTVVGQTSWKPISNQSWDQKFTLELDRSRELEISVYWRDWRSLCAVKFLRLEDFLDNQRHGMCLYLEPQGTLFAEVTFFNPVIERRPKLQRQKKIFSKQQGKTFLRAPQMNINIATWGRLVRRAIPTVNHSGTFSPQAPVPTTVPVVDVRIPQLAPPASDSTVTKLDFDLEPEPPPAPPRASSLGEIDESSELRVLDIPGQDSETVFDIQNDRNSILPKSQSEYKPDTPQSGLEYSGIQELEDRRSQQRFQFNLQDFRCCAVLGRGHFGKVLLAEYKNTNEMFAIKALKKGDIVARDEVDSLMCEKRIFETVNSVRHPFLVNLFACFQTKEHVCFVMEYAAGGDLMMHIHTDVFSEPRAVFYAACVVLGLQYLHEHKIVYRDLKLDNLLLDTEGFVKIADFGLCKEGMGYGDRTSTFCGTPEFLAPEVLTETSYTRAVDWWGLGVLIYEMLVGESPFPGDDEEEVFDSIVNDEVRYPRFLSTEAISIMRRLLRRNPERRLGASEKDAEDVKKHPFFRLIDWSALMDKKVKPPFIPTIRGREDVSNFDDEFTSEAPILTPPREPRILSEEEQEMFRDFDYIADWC
In short: as §1

[7] = target: MAPK8 (Homo sapiens, UniProt P45983); assay: filter binding kinase assay (second MAPK8 line); type: biochemical; conditions: read-out: residual kinase activity MAPK8
Chain of MAPK8 (P45983 whole entry): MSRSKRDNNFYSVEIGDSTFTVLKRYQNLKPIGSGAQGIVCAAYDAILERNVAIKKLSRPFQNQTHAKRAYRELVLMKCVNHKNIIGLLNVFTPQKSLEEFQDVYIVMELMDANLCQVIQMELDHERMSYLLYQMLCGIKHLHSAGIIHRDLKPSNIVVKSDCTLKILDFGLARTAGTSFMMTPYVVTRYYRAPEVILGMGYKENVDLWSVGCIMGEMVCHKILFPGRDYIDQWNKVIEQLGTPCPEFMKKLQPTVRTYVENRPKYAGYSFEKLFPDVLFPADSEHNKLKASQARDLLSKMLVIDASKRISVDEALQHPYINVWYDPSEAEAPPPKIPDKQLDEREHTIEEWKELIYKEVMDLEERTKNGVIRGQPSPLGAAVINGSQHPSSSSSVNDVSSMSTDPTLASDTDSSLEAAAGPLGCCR
Description: All kinase assays were carried out using the Multidrop 384 from Thermo-Fisher at room temperature in a total assay volume of 25.5 μl. 15 μl of an enzyme mix comprising enzyme and substrate in buffer are added to the test batch comprising either 0.5 μl of test substance, DMSO control or empty container. Test substances are pre-incubated in the presence of the enzyme and substrate for 5 minutes before the reaction is initiated by addition of 10 μl of ATP (concentration kinase-dependent of […]). The reaction is terminated by addition of 5 μl of orthophosphoric acid (50 mM). The test containers are then transferred onto P81 Unifilter plates by means of a “Packard Harvester” and dried in air. The dry Unifilter plates are sealed after the addition of MicroScint O, and the radioactivity is determined in a Packard Topcount NXT.

T1 sequence (P41240 whole entry, species assumed): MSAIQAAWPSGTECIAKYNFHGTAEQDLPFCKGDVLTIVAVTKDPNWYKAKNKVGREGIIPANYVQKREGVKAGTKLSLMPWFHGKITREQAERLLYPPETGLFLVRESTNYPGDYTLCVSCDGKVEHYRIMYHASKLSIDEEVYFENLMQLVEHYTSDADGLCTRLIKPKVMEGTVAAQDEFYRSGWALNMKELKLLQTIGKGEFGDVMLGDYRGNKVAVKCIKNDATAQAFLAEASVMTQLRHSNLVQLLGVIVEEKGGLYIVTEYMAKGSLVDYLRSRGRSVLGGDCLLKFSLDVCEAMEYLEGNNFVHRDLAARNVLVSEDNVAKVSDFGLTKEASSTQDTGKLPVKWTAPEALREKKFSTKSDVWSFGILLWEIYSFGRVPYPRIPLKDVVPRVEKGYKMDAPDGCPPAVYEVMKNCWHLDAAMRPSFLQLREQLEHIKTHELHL

Row | Compound | IC50 [1] | IC50 [2] | IC50 [3] | IC50 [4] | IC50 [5] | IC50 [6] | remaining activity at 1 µM ([4]; read-out: residual kinase activity Nek2A) | melting point | remaining activity at 1 µM [7] | remaining activity at 1 µM ([6]; read-out: residual kinase activity PRK2)
1 | CC(C)(C)OC(=O)Nc1ncsc1C#CCN1C(=O)c2ccccc2C1=O [Compound A26, tert-butyl{5-[3-(1,3-dioxo-1,3-dihydroisoindol-2-yl)prop-1-ynyl]-thiazol-4-yl}carbamate] | 10 to 100 µM | 1 to 10 µM | > 1 µM | 1 to 10 µM | 10 to 100 µM | 1 to 10 µM | – | – | – | –
2 | Nc1ncsc1C#Cc1cccc(O)c1 [Compound A27, 3-(4-aminothiazol-5-ylethynyl)phenol] | 10 to 100 µM | > 1 µM | 1 to 10 µM | 1 to 10 µM | 10 to 100 µM | 10 to 100 µM | 59% | – | – | –
3 | c1ccc(Cc2c[nH]c3ncsc23)cc1 [Compound A7, 6-benzyl-4H-pyrrolo[2,3-d]thiazole] | 1 to 10 µM | 1 to 10 µM | > 1 µM | > 1 µM | 10 to 100 µM | 1 to 10 µM | – | 133 to 135 °C | – | –
4 | CC(C)(C)OC(=O)Nc1nc(-c2ccncc2)sc1C#CCN1CCOCC1 [Compound A25, tert-butyl[5-(3-morpholin-4-ylprop-1-ynyl)-2-pyridin-4-ylthiazol-4-yl]-carbamate] | > 1 µM | > 1 µM | > 1 µM | 1 to 10 µM | 1 to 10 µM | > 1 µM | – | – | – | –
5 | Nc1ncsc1C#Cc1cnc2[nH]ccc2c1 [Compound A22, 5-(1H-pyrrolo[2,3-b]pyridin-5-ylethynyl)thiazol-4-ylamine] | 10 to 100 µM | 1 to 10 µM | > 1 µM | > 1 µM | > 1 µM | 0.01 to 1 µM | – | – | 34% | 38%
